From publication PMC6013238, “Development of novel NEMO-binding domain mimetics for inhibiting IKK/NF-κB activation” (PLoS Biology, 2018) come the findings set out here.

Several values for one entry are separate records, joined by “and”; a condition that tells them apart may be missing. Identical values can stand only once.

The subject of data set [1] is NF-κB target genes. As to the kind of experiment: qRT-PCR of NF-κB target genes in LPS-stimulated Raw 264.7 cells. Type of data set: cell-based, mouse. To be noted: Fig 4C, LPS 1 μg/ml 2 h, IKKi VII 2 μM, 8K-NBD 200 μM, SR compounds 50 μM, relative to no LPS. On the technique in general: In qPCR the cycle at which signal appears reflects the starting amount.
Data set [2] deals with IL-6 production. As to the kind of experiment: Mouse IL-6 ELISA of supernatant of LPS-stimulated Raw 264.7 cells. Type of data set: cell-based. The conditions noted are these: Fig 4D; IKKi VII 2 μM; LPS 1 μg/ml 24 h. As for the experimental part: Fig 4 Modified lead NBD mimetics inhibit TNF-α- and LPS-induced NF-κB activation by disrupting the association between NEMO and IKKβ. (A) Structures of top NBD mimetics. (B) Measurement of NF-κB activation in response to TNF-α by using Dual-luciferase reporter assays. HEK293 cells cotransfected with NF-κB luciferase reporter and SV40-Renilla plasmids were pretreated with DMSO or listed small molecules at 0, 25, 50, 100, and 150 μM for 30 min, followed by the induction of TNF-α for 3 h. Data shown are representative of 2–3 independent experiments. […] Raw 264.7 cells were pretreated with indicated drugs for 30 min and then stimulated with 1 μg/ml of LPS for 2 h. Cells were then harvested for RNA extraction and qRT-PCR analysis. Drug concentrations used are as follows: IKKi VII (2 μM), 8K-NBD peptide (200 μM), SR12343 (50 μM), SR12460 (50 μM), SR12454 (50 μM), and SR11481 (50 μM). Data are representative of 2 independent experiments. […] Raw 264.7 cells pretreated with DMSO or drugs at indicated concentrations were exposed to 1 μg/ml of LPS for 24 h, and supernatant was collected for ELISA analysis of mouse IL-6. *P < 0.05; **P < 0.01. Underlying data can be found in S1 Data. HEK293, human embryonic kidney 293 cells; IKK, IκB kinase; IL-6, interleukin 6; LPS, lipopolysaccharide; NBD, NEMO-binding domain; n.d., nondetectable; NEMO, NF-κB essential modulator; NF-κB, nuclear factor κB; qRT-PCR, […] real-time polymerase chain reaction; TNF-α; tumor necrosis factor α. TEXT PRINTED IN THE PICTURE: (D) ikki VII: mIL-6 (ng/ml): n.d. | (D) SR12460: mIL-6 (ng/ml): n.d. (50μM) | (D) SR12454: mIL-6 (ng/ml): n.d. (50μM) DOUBTS OF THE COPYIST ABOUT THIS PICTURE: Panel D: the only printed results are the three "n.d." labels. They stand in place of bars and are assigned to ikki VII, SR12460 50μM and SR12454 50μM by their position on the axis. All other results are shown only as bars, with no printed numbers.
To confirm the qRT-PCR results, the levels of IL-6 production in Raw 264.7 cells activated by LPS were analyzed by ELISA.
Raw 264.7 cells were grown in 96-well plates and pretreated with vehicle, IKKi VII (2 μM), and small molecules (at indicated concentration) for 1 h, followed by the stimulation with 1 μg/ml of LPS. Supernatant was collected 24 h later for ELISA analysis. IL-6 concentration was measured using a mouse IL-6 ELISA kit (BD) according to the manufacturer’s instructions.
For orientation: In an ELISA, binding on a coated surface is turned into a signal by an enzyme label.

Data set [3] relates to NF-κB activation. As to the kind of experiment: NF-κB firefly luciferase reporter assay, TNF-α-stimulated stably transfected HEK293 cells. The data set is classed as cell-based, human. To be noted: TNF-α 10 ng/ml 3 h, vehicle = 100, single experiments; for NF-κB luciferase activity normalized to vehicle: Fig 2C, derivatives at 100 μM; for NF-κB luciferase activity normalized to untreated stimulated control: Fig 2A, 100 μM, 30 min pretreatment. As for the experimental part:
To determine whether the small molecules identified by the in silico screening inhibit NF-κB activation, a HEK293 cell line stably expressing a luciferase reporter driven by a synthetic, NF-κB-dependent promoter was utilized. To induce NF-κB activation, cells were treated with 10 ng/mL of TNF-α and harvested 3 h post treatment for analysis of luciferase activity. […] To determine whether ZINC12909780 inhibits NF-κB in a dose-dependent manner, concentrations were tested at 0, 6.25, 25, 50, and 100 μM.
Luciferase activity was normalized to untreated stimulated control cells. […] Cell viability was calculated by normalizing to untreated cells. […] Underlying data can be found in S1 Data.
HEK293 cells stably transfected with luciferase reporter plasmid driven by NF-κB were seeded in 96-well plates in triplicate and pretreated with DMSO or varying small molecules at indicated concentration for 30 min, followed by the stimulation of 10 ng/ml of TNF-α for 3 h. Cells were washed with PBS once and harvested in Passive Lysis Buffer (Promega, Madison, WI). Luciferase assay (Promega) was performed by using a luminometer according to the manufacturer’s instructions.
(In general: A reporter such as luciferase makes a cellular process visible.)

In data set [4] the test system is HEK293 cells. To be noted: Fig 2D; 100 μM, 24 h. As for the experimental part: (A) HEK293 cells stably expressing NF-κB luciferase reporter were pretreated with indicated small molecules at 100 μM for 30 min, followed by stimulation with TNF-α (10 ng/ml) for 3 h. Luciferase activity was normalized to untreated stimulated control cells. […] (B) The dose-dependent response of ZINC12909780 was tested by NF-κB luciferase assay in HEK293 cells. Three independent experiments were performed, and data shown represent mean +/− SD. […] (D) HEK293 cells were cultured in the presence of 100 μM of indicated derivatives for 24 h, and cell survival was determined by MTT assay. Cell viability was calculated by normalizing to untreated cells. (E) Dose-dependent inhibitory effects were determined for ZINC5 at 0, 25, 50, and 100 μM by using NF-κB luciferase assay. (F) HEK293 were cultivated in the presence of ZINC5 at listed concentrations for 24 h, and cell survival was assessed by MTT assay. Data represent the mean +/− SD from 4–5 independent experiments. *P < 0.05; **P < 0.01; ***P < 0.001. Underlying data can be found in S1 Data. HEK293, human embryonic kidney 293 cells; MTT, 3-(4,5-dimethylthiazol-2-yl)-2,5-dephenyltetrazolium bromide colormetric assay for assessing cell metabolic activity; NF-κB, nuclear factor κB; TNF-α; tumor necrosis factor α; SD, standard deviation.
HEK293 cells were grown in a 96-well plate at 3 × 10^4 cells/well in triplicate and treated with DMSO or listed small molecules at indicated concentrations for 24 h. Cell survival was determined by adding 20 μl of 5 mg/ml MTT (thiazolyl blue tetrazolium bromide) to each well, followed by incubation in 37 °C for 3 h. Media were removed, and purple formazan was dissolved in 100 uL of DMSO. Absorbance was measured at 590 nm on a microplate reader (PerkinElmer, Waltham, MA). Cell viability was calculated by normalizing values to untreated controls.

In the case of `O=C(c1ccc(Nc2nccc(-c3cc4ccccc4s3)n2)cc1)N1CCC(N2CCCC2)CC1` [IKKi VII, reference compound], the “iNOS mRNA expression (qRT-PCR)” value in data set [1] is “failed to down-regulate iNOS expression”. Also, in data set [1] (listed as ikki VII), the “COX2 mRNA expression (qRT-PCR)” value is 169.382 and 169.611 and 190.029; the “IL6 mRNA expression (qRT-PCR)” value is 61.5373 and 59.8482 and 47.3662; the “IL-1b mRNA expression (qRT-PCR)” value is 67.7567 and 72.7507 and 75.5037; the “TNFa mRNA expression (qRT-PCR)” value was 61.1388 and 68.3653 and 68.6282. In data set [1] (listed as ikki VII), the “iNOS mRNA expression (qRT-PCR)” value was 24.1042 and 20.2843 and 19.9052; the “ikBa mRNA expression (qRT-PCR)” value is 8.329 and 8.125 and 9.136. For the same compound, the “mIL-6 in supernatant (ELISA)” value in data set [2] is 0 ng/mL. Moreover, the “NF-κB luciferase activity normalized to vehicle” value in data set [3] is given as “lowered NF-κB activity robustly”.
With `O=C(COC(=O)c1ncc(Cl)c(Cl)c1Cl)Nc1ccc(Cl)cn1` [ZINC1], the “NF-κB luciferase activity normalized to vehicle” value in data set [3] is on record as “lowered NF-κB activity robustly”.
As for `O=C(COC(=O)c1nc(Cl)ccc1Cl)Nc1ncc(Cl)cc1Cl` [ZINC2], the “NF-κB luciferase activity normalized to vehicle” value in data set [3] is 87.9 and 94.94 and 107.72 and 95.11 and 110.04.
Turning to `O=C(COC(=O)c1nc(Cl)ccc1Cl)Nc1ccc(Cl)cn1` [ZINC3], the “Cell viability normalized to untreated cells (MTT)” value (“Cell viability normalized” for short) in data set [4] is 97 and 81 and 75. Further, the “NF-κB luciferase activity normalized to vehicle” value in data set [3] is 111.63 and 103.8 and 115.96 and 89.11 and 115.8.
For the compound `O=C(COC(=O)c1ccc2ccccc2c1)Nc1ncc(C(F)(F)F)cc1Cl` [ZINC4], the “Cell viability normalized” value in data set [4] was 62 and 80 and 74 and 70. In data set [3], the “NF-κB luciferase activity normalized to vehicle” value was 99.2 and 99.51 and 98.62 and 84.84 and 111.34.
Turning to `O=C(COC(=O)c1cccnc1Cl)Nc1ncc(Cl)cc1Cl` [ZINC6], in data set [4], the “Cell viability normalized” value was 90 and 71 and 78 and 92. The “NF-κB luciferase activity normalized to vehicle” value in data set [3] was 114.53 and 96.57 and 113.68 and 101.67 and 104.3.
Turning to `O=C(COC(=O)c1c2ccccc2cc2ccccc12)Nc1ncc(C(F)(F)F)cc1Cl` [ZINC7], the “Cell viability normalized” value in data set [4] was 73 and 51 and 70 and 69. Moreover, in data set [3], the “NF-κB luciferase activity normalized to vehicle” value was 99.14 and 98.45 and 107.93 and 94.89.
With `O=C(COC(=O)c1cccc2ccccc12)Nc1ncc(C(F)(F)F)cc1Cl` [ZINC8], in data set [4], the “Cell viability normalized” value is 51 and 82 and 57 and 61. In addition, the “NF-κB luciferase activity normalized to vehicle” value is 56.26 and 53.09 and 63.7 and 43.79 and 59.31 in data set [3]; “lowered NF-κB activity robustly” in data set [3] (listed as Zinc8).
`O=C(COC(=O)Cc1ccccc1)Nc1ncc(Cl)cc1Cl` [ZINC9]: the “Cell viability normalized” value in data set [4] was 92 and 86 and 88. Also, the “NF-κB luciferase activity normalized to vehicle” value in data set [3] is 67.06 and 59.84 and 88.3 and 70.04 and 84.32; in data set [3] (listed as Zinc9), “lowered NF-κB activity robustly”.
For `O=C(COC(=O)c1ccccn1)Nc1ncc(C(F)(F)F)cc1Cl` [ZINC10], in data set [4], the “Cell viability normalized” value was 89 and 65 and 84 and 79. In addition, the “NF-κB luciferase activity normalized to vehicle” value in data set [3] was 108.77 and 101.36 and 116.46 and 94.96 and 126.1.
Take `O=C(COC(=O)c1ccc(Cl)nc1)Nc1ncc(Cl)cc1Cl` [ZINC11]: the “Cell viability normalized” value in data set [4] is 77 and 62 and 78 and 72. For the same compound, the “NF-κB luciferase activity normalized to vehicle” value in data set [3] is 90.11 and 74.66 and 111.57 and 92.82 and 119.55.
With `O=C(COC(=O)c1ccc(F)cc1F)Nc1ccc(Cl)cn1` [ZINC12], the “Cell viability normalized” value in data set [4] was 94 and 85 and 87. Besides, the “NF-κB luciferase activity normalized to vehicle” value in data set [3] was 95.61 and 79.06 and 109.79 and 80.64 and 92.59.
In the case of `NC(=O)COC(=O)c1cccnc1Nc1ccccc1F` [ZINC13], in data set [4], the “Cell viability normalized” value is 82 and 81 and 84 and 90. For the same compound, in data set [3], the “NF-κB luciferase activity normalized to vehicle” value was 100.33 and 91.05 and 121.31 and 95.5 and 122.97.
`O=C(COC(=O)c1cccc(F)c1)Nc1ccc(Cl)cn1` [ZINC14]: the “Cell viability normalized” value in data set [4] is 60 and 64 and 68 and 84. Besides, the “NF-κB luciferase activity normalized to vehicle” value in data set [3] is 108.83 and 98.08 and 117.73 and 100.75 and 124.98.
Regarding `O=C(COC(=O)c1ccc(F)cc1)Nc1ccc(Cl)cn1` [ZINC15], the “Cell viability normalized” value in data set [4] was 58 and 77 and 86. Further, in data set [3], the “NF-κB luciferase activity normalized to vehicle” value was 103.61 and 97.73 and 103.85 and 95.58 and 115.08.
In the case of `O=C(NN=C1CCN(Cc2ccccc2)CC1)[C@H]1C[C@@H]1c1ccccc1` [ZINC05682974], the “NF-κB luciferase activity normalized to untreated stimulated control” value was “remained unchanged” in data set [3]; 105.454 and 97.4199 in data set [3] (listed as ZINC05682947).
